What was measured:
[1] = test system: hepatitis B virus (HBV); conditions: read-out: EC50, antiviral activity in vitro; cited from earlier work
[2] = parameters: species or system Male SD (Sprague-Dawley) rats; conditions: rat, in vivo, po, 0.036 mmol/kg
Procedure: Male SD (Sprague-Dawley) rats, weighing 180 to 300 g, were provided by Shanghai Xipuer-Beikai Experimental Animal Co., Ltd. The male animals were acclimatized to the environment for more than 3 days, and fasted for 12 hours overnight before the experiment, but were allowed to drink water. […] Before administration, the animals were checked to determine whether their body weights met the experimental requirements. Twelve rats were selected for grouping, two rats in each group. The drug solutions were administered intragastrically to the rats in an amount of 0.036 mmol/kg. The rats were euthanized with carbon dioxide gas and samples were collected, at 0.5 h, 1 h, 3 h, 6 h, 12 h, and 24 h, respectively. […] The supernatant plasma was taken, to which 10% trichloroacetic acid (containing PMPA as an internal standard, at a concentration of 100 ng/mL) was immediately added as a precipitant at a volume 5 times that of the plasma, to obtain plasma sample solutions. […] Two ceramic beads were added to each of the homogenization tubes for homogenization to obtain tissue homogenate samples. 100 μL of each biological sample was taken, placed in a 1.5 mL test tube, and centrifuged for 5 min. 20 μL of the supernatant was taken and mixed uniformly with 180 μL of water and then analyzed by LC-MS/MS. LC-MS/MS-AJ (Triple Quad 5500, AB SCIEX) was used for analysis of the samples. Chromatographic Column: Acquity UPLC HSS T3 (2.1×50 mm, 1.8 μm); Column Temperature: 40° C.; Flow Rate: 0.5 mL/min. Mobile Phase A: 0.1% formic acid in water, Mobile Phase B: Acetonitrile Solution. The mass spectrometry was performed with an electrospray ionization source (Turbo Ionspray) as an ion source, in a positive ion mode, at a capillary voltage of 3.0 kV, at a temperature of 500° C., and at a desolvation gas flow of 1000 L/h. The scanning time, cone voltage, collision energy, and the ion reaction for quantitative analysis were shown in Table 6 below: The concentration of the metabolite from each of the compounds in the liver was plotted as a function of time on a bar chart.

[3] = test system: lamivudine-resistant virus strains; conditions: read-out: EC50, inhibitory activity against lamivudine-resistant virus strains; cited from earlier work
[4] = In-vitro metabolism in rat liver microsomes, release of ETVMP (Example 24); format: in vitro ADME; conditions: result in words
Text: (§1) Human liver microsomes (HLM) were purchased from IVT (In Vitro Technologies) (Product No. X008070, Batch No. SSP). Rat liver microsomes (RLM) were purchased from BD with a batch number of 16298, and mice liver microsomes (MLM) were purchased from Research Institute for Liver Diseases (Shanghai) Co., Ltd. (RILD), with a batch number of BQNI.
(§2) The test compounds PA3001, PA3002, PA3003, and PA3004 were synthesized by Zhejiang Palo Alto Pharmaceuticals, Inc., and dissolved in methanol (from Sinopharm Chemical Reagent Co., Ltd.) to prepare storage solutions at a concentration of 25 mM.
(§3) The enzymatic reaction was carried out in a 100 mM KH2PO4 buffer solution (pH 7.4), with a test compound at a concentration of 25 μM, human liver microsomes at a concentration of 2 mg/ml, and NADPH at a concentration of 2 mM. The reaction was initiated by NADPH which was added last. After the reaction was carried out for 5 min in a constant-temperature shaking water bath kettle, methanol at a volume of 1.5 times that of the reaction mixture was added immediately to terminate the reaction.
(§4) Each sample was centrifuged at a maximum speed of 13,600 rpm for 20 minutes using an Eppendorf tabletop centrifuge. The supernatant was taken, and was blow-dried by a nitrogen blower and then re-dissolved in mobile phase A (0.1% formic acid (v/v) in water).
(§5) • Analysis Column: Waters, Acquity UPLC HSS T3 Column • Flow Rate: 0.5 ml/min • Column Temperature: 40 degrees Celsius • III. Mass Spectrometry Condition • Ion Source: Electrospray Ionization Source • Ion Mode: Positive Ion Mode • Capillary Voltage: 3.0 kV • Temperature: 500° C. • Desolvation Gas Flow Rate: […] • Scan Time: 0.025 s • Cone Voltage: 40 V • Collision Energy: 18 eV • Q1 (m/z): 358 • Q3 (m/z): 152

[5] = In-vitro metabolism in mice liver microsomes, release of ETVMP (Example 24); format: in vitro ADME, mouse; conditions: result in words
Text: as §1, §2, §3, §4, §5

[6] = In-vitro metabolism in human liver microsomes, release of ETVMP (Example 24); format: in vitro ADME; conditions: result in words
Text: as §1, §2, §3, §4, §5

AUC0-24 h of ETVMP in Liver [2] [nmol·h/g]	AUC0-24 h of ETVMP in Plasma [2] [nmol·h/g]	AUC0-24 h of ETVMP in Brain Tissue [2] [nmol·h/g]	Activated in vitro into monophosphate metabolite ETVMP by rat liver microsomes [4]	Activated in vitro into monophosphate metabolite ETVMP by mouse liver microsomes [5]	Activated in vitro into monophosphate metabolite ETVMP by human liver microsomes [6]	Efficiency of activation by human liver microsomes into ETVMP compared with comparative compound PA3001 [6]	Rank of conversion rate among tested compounds, rat liver microsomes ([4]; Table 3)	Rank of conversion rate among tested compounds, mouse liver microsomes ([5]; Table 3)	Rank of conversion rate among tested compounds, human liver microsomes ([6]; Table 3)	Compound	EC50 [1] [nM]	EC50 [3] [nM]
8.1	0.03					significantly greater				C=C1[C@H](COP2(=O)OCC[C@H](c3cc(F)cc(Cl)c3)O2)[C@@H](O)C[C@@H]1n1cnc2c(=O)[nH]c(N)nc21 (stereo partly drawn) [PA3002]		
18.9	0.19	1.1	activated	activated	activated					C=C1[C@H](COP2(=O)OCC[C@H](c3ccncc3)O2)[C@@H](O)C[C@@H]1n1cnc2c(=O)[nH]c(N)nc21 (stereo partly drawn) [PA3003]		
11.6	0.09		activated	activated	activated	significantly greater	highest rate	highest rate	highest rate	C=C1[C@H](COP2(=O)OCC[C@H](c3cc(Cl)ccc3F)O2)[C@@H](O)C[C@@H]1n1cnc2c(=O)[nH]c(N)nc21 (stereo partly drawn) [PA3004]		
9.0	0.08									C=C1[C@H](COP2(=O)OCC[C@H](c3cc(Cl)ccc3Cl)O2)[C@@H](O)C[C@@H]1n1cnc2c(=O)[nH]c(N)nc21 (stereo partly drawn) [PA3017]		

Second part, the compound before the results:

Compound	AUC0-24 h of ETVMP in Liver [2] [nmol·h/g]	AUC0-24 h of ETVMP in Plasma [2] [nmol·h/g]	AUC0-24 h of ETVMP in Brain Tissue [2] [nmol·h/g]	Activated in vitro into monophosphate metabolite ETVMP by rat liver microsomes [4]	Activated in vitro into monophosphate metabolite ETVMP by mouse liver microsomes [5]	Activated in vitro into monophosphate metabolite ETVMP by human liver microsomes [6]	Efficiency of activation by human liver microsomes into ETVMP compared with comparative compound PA3001 [6]	Rank of conversion rate among tested compounds, rat liver microsomes ([4]; Table 3)	Rank of conversion rate among tested compounds, mouse liver microsomes ([5]; Table 3)	Rank of conversion rate among tested compounds, human liver microsomes ([6]; Table 3)	EC50 [1] [nM]	EC50 [3] [nM]
C=C1[C@@H](CO)[C@@H](O)C[C@@H]1n1cnc2c(=O)[nH]c(N)nc21 [ETV, 2-amino-9-[(1S,3S,4S)-4-hydroxy-3-hydroxymethyl-2-methylenecyclopentyl]-1,9-dihydro-6H-purine-6-one, reference compound]	16.6	0.55									4	10 to 59
C=C1[C@H](COP2(=O)OCC[C@H](c3cccc(Cl)c3)O2)[C@@H](O)C[C@@H]1n1cnc2c(=O)[nH]c(N)nc21 (stereo partly drawn) [PA3001]	16.2	0.17	0.2	activated	activated	activated						

Reference: US10913766B2, “Liver specific delivery-based entecavir prodrug, nucleoside cyclic phosphate compound, and application thereof” (ZHEJIANG PALO ALTO PHARMACEUTICALS, INC., priority 2017, dated 2021)
